In brackets after ≈: the same amount, converted by molar mass.
What was measured:
Escherichia coli = experiment: Antibacterial activity against Escherichia coli; type: functional
Staphylococcus aureus = experiment: Antibacterial activity against Staphylococcus aureus; type: functional
Candida albicans = experiment: Antifungal activity against Candida albicans; type: functional, organism-based
Aspergillus niger = experiment: Antifungal activity against Aspergillus niger; type: functional, organism-based
[1] = system: Trichophyton mentagrophytes; experiment: Antifungal activity against Trichophyton mentagrophytes; type: functional, organism-based
Cryptococcus neoformans = experiment: Antifungal activity against Cryptococcus neoformans; type: functional, organism-based
Bacillus subtilis = experiment: Antibacterial activity against Bacillus subtilis; type: functional
Micrococcus luteus = experiment: Antibacterial activity against Micrococcus luteus; type: functional

| MIC (Escherichia coli) [µg/mL] | MIC (Staphylococcus aureus) [µg/mL] | IC50 (Candida albicans) [µg/mL] | IC50 (Aspergillus niger) [µg/mL] | IC50 [1] [µg/mL] | IC50 (Cryptococcus neoformans) [µg/mL] | MIC (Bacillus subtilis) [µg/mL] | MIC (Micrococcus luteus) [µg/mL] | SMILES |
| --- | --- | --- | --- | --- | --- | --- | --- | --- |
| 32 (≈ 42.2 µM) | 16 (≈ 21.1 µM) | 32 (≈ 42.2 µM) | > 32 | > 32 | 8 (≈ 10.5 µM) | > 32 | > 32 | CCCCCCCCCCCCCCCCC1=C[C@H](C(=O)O)[C@H]2C(=O)C(C(=O)OC)=C(CCCCCCCCCCCCCCCC)[C@@]2(O)[C@H]1C(=O)OC |
| > 32 | > 32 | > 32 | > 32 | > 32 | > 32 | > 32 | > 32 | CCCCCCCCCCCCCCCCC1=C[C@H](C(=O)OC)[C@H]2C(=O)C(C(=O)OC)=C(CCCCCCCCCCCCCCCC)[C@@]2(O)[C@H]1C(=O)OC (racemic) |
| 32 (≈ 42.3 µM) | > 32 | 32 (≈ 42.3 µM) | > 32 | > 32 | 4 (≈ 5.28 µM) | > 32 | > 32 | CCCCCCCCCCCCCCCCC1=C(C(=O)OC)C2=C(C(=O)[C@H](C(=O)OC)[C@H]2CCCCCCCCCCCCCCCC)C(C(=O)OC)C1 (some centres undefined) [MANZAMENONE N] |
